Data reported in patent US8927538B2, “Carbazole linked pyrrolo[2,1-c][1,4]benzodiazefine hybrids as potential anticancer agents and process for the preparation thereof” (Council of Scientific & Industrial Research, priority 2010, dated 2015).

Columns and labels:
Format in all cases: cell-based, human
HOP-92 = assay: NCI SRB cytotoxicity, HOP-92; conditions: Non-small cell lung HOP-92, 48 hrs exposure
Text: (§1) The C8-linked carbazole-PBD hybrids have been tested against sixty human tumour cell lines derived from nine cancer types (leukemia, non-small cell lung cancer, colon cancer, CNS cancer, melanoma, ovarian cancer, renal cancer, prostate cancer and breast cancer) as per NCI protocol, For each compound, dose response curves for individual cell lines have been measured at a minimum of five concentrations at 10 fold dilutions. A protocol of 48 hrs continuous drug exposure has been used, and a sulforhodamine B (SRB) protein assay was used to estimate cell viability or growth. The concentration for 50% cell growth inhibition (GI50), total cell growth inhibition (TGI, 0% growth) and 50% cell death (LC50, […]) compared with the control has been calculated (Table-3).
(§2) Compounds 6c and 14a have been evaluated for in vitro cytotoxicity in sixty cell lines from nine human cancer types of lung (Hop-62, NCI-H226, NCI-H522), leukemia (K-562, SR), colon (HCT-116, HCT-15, HCC-2998), CNS(SF-539), melanoma (SK-MEL-5, UACC-62, M14), ovarian (IGROV1), renal (A498), prostate (PC3) breast (BT-549, MDA-MB-435, HS578T) origin. The results are expressed as percent of cell growth determined relative to that of untreated control cells (Table 1).

[1] = system: Leukemia cancer cell lines; assay: NCI SRB cytotoxicity, leukemia panel; conditions: average of six to eight cell lines
Text: as §1, §2

breast cancer cell lines = assay: NCI SRB cytotoxicity, breast panel; conditions: average of six to eight cell lines
Text: as §1, §2

CCRF-CEM = assay: NCI SRB cytotoxicity, CCRF-CEM; conditions: Leukemia CCRF-CEM, 48 hrs exposure
Text: as §1, §2

OVCAR-4 = assay: NCI SRB cytotoxicity, OVCAR-4; conditions: Ovarian OVCAR-4, 48 hrs exposure
Text: as §1, §2

SNB-19 = assay: NCI SRB cytotoxicity, SNB-19; conditions: CNS SNB-19, 48 hrs exposure
Text: as §1, §2

RXF 393 = assay: NCI SRB cytotoxicity, RXF 393; conditions: Renal RXF 393, 48 hrs exposure
Text: as §1, §2

[2] = system: Non small cell lung cancer cell lines; assay: NCI SRB cytotoxicity, non-small cell lung panel; conditions: average of six to eight cell lines
Text: as §1, §2

[3] = system: prostate cancer cell lines; assay: NCI SRB cytotoxicity, prostate panel; conditions: average of cell lines
Text: as §1, §2

OVCAR-3 = assay: NCI SRB cytotoxicity, OVCAR-3; conditions: Ovarian OVCAR-3, 48 hrs exposure
Text: as §1, §2

EKVX = assay: NCI SRB cytotoxicity, EKVX; conditions: Non-small cell lung EKVX, 48 hrs exposure
Text: as §1, §2

786-0 = assay: NCI SRB cytotoxicity, 786-0; conditions: Renal 786-0, 48 hrs exposure
Text: as §1, §2

ACHN = assay: NCI SRB cytotoxicity, ACHN; conditions: Renal ACHN, 48 hrs exposure
Text: as §1, §2

HCT-15 = assay: NCI SRB cytotoxicity, HCT-15; conditions: Colon HCT-15, 48 hrs exposure
Text: as §1, §2

CNS cancer cell lines = assay: NCI SRB cytotoxicity, CNS panel; conditions: average of six to eight cell lines
Text: as §1, §2

SK-MEL-28 = assay: NCI SRB cytotoxicity, SK-MEL-28; conditions: Melanoma SK-MEL-28, 48 hrs exposure
Text: as §1, §2

HOP-62 = assay: NCI SRB cytotoxicity, HOP-62; conditions: Non-small cell lung HOP-62, 48 hrs exposure
Text: as §1, §2

Renal cancer cell lines = assay: NCI SRB cytotoxicity, renal panel; conditions: average of six to eight cell lines
Text: as §1, §2

UACC-62 = assay: NCI SRB cytotoxicity, UACC-62; conditions: Melanoma UACC-62, 48 hrs exposure
Text: as §1, §2

MALME-3M = assay: NCI SRB cytotoxicity, MALME-3M; conditions: Melanoma MALME-3M, 48 hrs exposure
Text: as §1, §2

HCT-116 = assay: NCI SRB cytotoxicity, HCT-116; conditions: Colon HCT-116, 48 hrs exposure
Text: as §1, §2

MDA-MB-435 = assay: NCI SRB cytotoxicity, MDA-MB-435; conditions: Breast MDA-MB-435, 48 hrs exposure
Text: as §1, §2

COLO 205 = assay: NCI SRB cytotoxicity, COLO 205; conditions: Colon COLO 205, 48 hrs exposure
Text: as §1, §2

HS 578T = assay: NCI SRB cytotoxicity, HS 578T; conditions: Breast HS 578T, 48 hrs exposure
Text: as §1, §2

CAKI-1 = assay: NCI SRB cytotoxicity, CAKI-1; conditions: Renal CAKI-1, 48 hrs exposure
Text: as §1, §2

HL-60(TB) = assay: NCI SRB cytotoxicity, HL-60(TB); conditions: Leukemia HL-60(TB), 48 hrs exposure
Text: as §1, §2

A498 = assay: NCI SRB cytotoxicity, A498; conditions: Renal A498, 48 hrs exposure
Text: as §1, §2

[4] = system: Melanoma cancer cell lines; assay: NCI SRB cytotoxicity, melanoma panel; conditions: average of six to eight cell lines
Text: as §1, §2

SNB-75 = assay: NCI SRB cytotoxicity, SNB-75; conditions: CNS SNB-75, 48 hrs exposure
Text: as §1, §2

[5] = system: ovarian cancer cell lines; assay: NCI SRB cytotoxicity, ovarian panel; conditions: average of six to eight cell lines
Text: as §1, §2

IGROV1 = assay: NCI SRB cytotoxicity, IGROV1; conditions: Ovarian IGROV1, 48 hrs exposure
Text: as §1, §2

MDA-MB- = assay: NCI SRB cytotoxicity, MDA-MB-; conditions: Breast MDA-MB-, 48 hrs exposure
Text: as §1, §2

SF-539 = assay: NCI SRB cytotoxicity, SF-539; conditions: CNS SF-539, 48 hrs exposure
Text: as §1, §2

For COc1cc2c(cc1OCCCCCn1c3ccccc3c3ccccc31)N=C[C@@H]1CCCN1C2=O [Compound 6c, 7-Methoxy-8-[5-(9H-9-carbazoly)pentyloxy]-(11aS)-1,2,3,11a-tetrahydro-5H-Pyrrolo[2,1-c][1,4]benzodiazepin-5-one], which GI50 (HOP-92) is on record?
Its GI50 is 1.31 µM.

What about the “Log10 GI50” value [1] of the same compound?
The value was −5.56 mol/L.

What about the “Log10 LC50 (concentration causing 50% lethality)” value [1] of the same compound?
The value was −4.18 mol/L.

What about the “Log10 GI50” value (breast cancer cell lines) of the same compound?
The value was −5.67 mol/L.

And the “Log10 LC50 (concentration causing 50% lethality)” value (breast cancer cell lines)?
Its value is −4.47 mol/L.

What about the GI50 (CCRF-CEM) of the same compound?
Its GI50 is 1.97 µM.

What about the GI50 (OVCAR-4) of the same compound?
Its GI50 is 3.09 µM.

And the GI50 (SNB-19)?
Its GI50 is 2.05 µM.

And the GI50 (RXF 393)?
Its GI50 is 4.34 µM.

And the “Log10 GI50” value [2]?
Its value is −5.64 mol/L.

What about the “Log10 LC50 (concentration causing 50% lethality)” value [2] of the same compound?
Its value is −4.78 mol/L.

What about the “Log10 GI50” value [3] of the same compound?
The value was −5.64 mol/L.

And the “Log10 LC50 (concentration causing 50% lethality)” value [3]?
Its value is −4.50 mol/L.

And the GI50 (OVCAR-3)?
The GI50 was 1.88 µM.

And the GI50 (EKVX)?
The GI50 was 5.27 µM.

And the GI50 (786-0)?
Its GI50 is 1.73 µM.

And the GI50 (ACHN)?
Its GI50 is 1.74 µM.

What about the GI50 (HCT-15) of the same compound?
Its GI50 is 1.67 µM.

And the “Log10 GI50” value (CNS cancer cell lines)?
Its value is −5.76 mol/L.

What about the “Log10 LC50 (concentration causing 50% lethality)” value (CNS cancer cell lines) of the same compound?
The value was −4.97 mol/L.

And the GI50 (SK-MEL-28)?
The GI50 was 1.8 µM.

What about the GI50 (HOP-62) of the same compound?
The GI50 was 1.8 µM.

And the “Log10 LC50 (concentration causing 50% lethality)” value (Renal cancer cell lines)?
Its value is −4.99 mol/L.

What about the GI50 (UACC-62) of the same compound?
The GI50 was 1.86 µM.

And the GI50 (MALME-3M)?
The GI50 was 2.2 µM.

What about the GI50 (HCT-116) of the same compound?
The GI50 was 1.65 µM.

And the GI50 (MDA-MB-435)?
The GI50 was 1.73 µM.

And the GI50 (COLO 205)?
Its GI50 is 2.11 µM.

And the GI50 (HS 578T)?
The GI50 was 1.97 µM.

What about the GI50 (CAKI-1) of the same compound?
The GI50 was 1.93 µM.

What about the GI50 (HL-60(TB)) of the same compound?
Its GI50 is 1.72 µM.

And the GI50 (A498)?
Its GI50 is 1.77 µM.

What about the “Log10 GI50” value [4] of the same compound?
The value was −5.71 mol/L.

And the “Log10 LC50 (concentration causing 50% lethality)” value [4]?
Its value is −4.74 mol/L.

And the GI50 (SNB-75)?
The GI50 was 1.05 µM.

What about the “Log10 GI50” value [5] of the same compound?
The value was −5.57 mol/L.

And the “Log10 LC50 (concentration causing 50% lethality)” value [5]?
The value was −4.59 mol/L.

And the GI50 (IGROV1)?
The GI50 was 2.08 µM.

What about the GI50 (MDA-MB-) of the same compound?
The GI50 was 2.14 µM.

And the GI50 (SF-539)?
Its GI50 is 1.85 µM.

With COc1cc2c(cc1OCCCN1CCN(CCCn3c4ccccc4c4ccccc43)CC1)N=C[C@@H]1CCCN1C2=O [Compound 14a] as the compound, how does the GI50 (HOP-92) read?
The GI50 was 0.27 µM.

And the “Log10 GI50” value [1]?
The value was −7.55 mol/L.

What about the “Log10 GI50” value (breast cancer cell lines) of the same compound?
The value was −6.96 mol/L.

What about the “Log10 LC50 (concentration causing 50% lethality)” value (breast cancer cell lines) of the same compound?
Its value is −5.59 mol/L.

What about the GI50 (CCRF-CEM) of the same compound?
Its GI50 is 0.02 µM.

What about the GI50 (OVCAR-4) of the same compound?
Its GI50 is 0.1 µM.

And the GI50 (SNB-19)?
The GI50 was 0.21 µM.

What about the GI50 (RXF 393) of the same compound?
The GI50 was 0.22 µM.

And the “Log10 GI50” value [2]?
Its value is −6.96 mol/L.

What about the “Log10 LC50 (concentration causing 50% lethality)” value [2] of the same compound?
Its value is −5.62 mol/L.

What about the “Log10 GI50” value [3] of the same compound?
Its value is −7.42 mol/L.

What about the “Log10 LC50 (concentration causing 50% lethality)” value [3] of the same compound?
Its value is −5.59 mol/L.

And the GI50 (OVCAR-3)?
Its GI50 is 0.069 µM.

What about the GI50 (EKVX) of the same compound?
The GI50 was 0.14 µM.

And the GI50 (786-0)?
Its GI50 is 0.19 µM.

What about the GI50 (ACHN) of the same compound?
Its GI50 is 0.25 µM.

What about the GI50 (HCT-15) of the same compound?
Its GI50 is 0.28 µM.

What about the “Log10 GI50” value (CNS cancer cell lines) of the same compound?
The value was −6.96 mol/L.

What about the “Log10 LC50 (concentration causing 50% lethality)” value (CNS cancer cell lines) of the same compound?
Its value is −5.67 mol/L.

And the GI50 (SK-MEL-28)?
Its GI50 is 0.06 µM.

And the GI50 (HOP-62)?
Its GI50 is 0.08 µM.

And the “Log10 GI50” value (Renal cancer cell lines)?
Its value is −6.72 mol/L.

What about the “Log10 LC50 (concentration causing 50% lethality)” value (Renal cancer cell lines) of the same compound?
The value was −5.61 mol/L.

What about the GI50 (UACC-62) of the same compound?
The GI50 was 0.15 µM.

And the GI50 (MALME-3M)?
Its GI50 is 0.15 µM.

And the GI50 (HCT-116)?
Its GI50 is 0.06 µM.

What about the GI50 (MDA-MB-435) of the same compound?
Its GI50 is less than 0.01 µM.

And the GI50 (COLO 205)?
Its GI50 is 0.07 µM.

And the GI50 (HS 578T)?
Its GI50 is 0.16 µM.

And the GI50 (CAKI-1)?
The GI50 was 0.12 µM.

What about the GI50 (HL-60(TB)) of the same compound?
Its GI50 is 0.03 µM.

And the GI50 (A498)?
Its GI50 is 0.17 µM.

What about the “Log10 GI50” value [4] of the same compound?
Its value is −6.91 mol/L.

What about the “Log10 LC50 (concentration causing 50% lethality)” value [4] of the same compound?
The value was −6.06 mol/L.

What about the GI50 (SNB-75) of the same compound?
The GI50 was 0.15 µM.

What about the “Log10 GI50” value [5] of the same compound?
The value was −7.22 mol/L.

And the “Log10 LC50 (concentration causing 50% lethality)” value [5]?
The value was −5.80 mol/L.

What about the GI50 (IGROV1) of the same compound?
Its GI50 is less than 0.01 µM.

What about the GI50 (MDA-MB-) of the same compound?
The GI50 was 0.95 µM.

What about the GI50 (SF-539) of the same compound?
The GI50 was 0.12 µM.
